Laboratory results published in patent US20040063662A1, “Selenophene anti-tumor agents” (priority 1996, published 2004).

Experiments:
[1] = tested on: MOLT-4; experiment: NCI human tumor cell panel: MOLT-4 (Leukemia); format: cell-based
[2] = tested on: RPMI-8226; experiment: NCI human tumor cell panel: RPMI-8226 (Leukemia); format: cell-based
[3] = tested on: SR; experiment: NCI human tumor cell panel: SR (Leukemia); format: cell-based
[4] = tested on: EKVX; experiment: NCI human tumor cell panel: EKVX (Non-Small Cell Lung Cancer); format: cell-based
[5] = tested on: HOP-62; experiment: NCI human tumor cell panel: HOP-62 (Non-Small Cell Lung Cancer); format: cell-based
[6] = tested on: NCI-H322M; experiment: cells; format: cell-based; conditions: Homo sapiens
[7] = tested on: NCI-H460; experiment: NCI human tumor cell panel: NCI-H460 (Non-Small Cell Lung Cancer); format: cell-based
[8] = tested on: HCC-2998; experiment: NCI human tumor cell panel: HCC-2998 (Colon Cancer); format: cell-based
[9] = tested on: HCT-116; experiment: NCI human tumor cell panel: HCT-116 (Colon Cancer); format: cell-based
[10] = tested on: HCT-15; experiment: NCI human tumor cell panel: HCT-15 (Colon Cancer); format: cell-based
[11] = tested on: HT29; experiment: NCI human tumor cell panel: HT29 (Colon Cancer); format: cell-based
[12] = tested on: KM12; experiment: NCI human tumor cell panel: KM12 (Colon Cancer); format: cell-based
[13] = tested on: SW-620; experiment: NCI human tumor cell panel: SW-620 (Colon Cancer); format: cell-based
[14] = tested on: SF-295; experiment: NCI human tumor cell panel: SF-295 (CNS Cancer); format: cell-based
[15] = tested on: SF-539; experiment: NCI human tumor cell panel: SF-539 (CNS Cancer); format: cell-based
[16] = tested on: SNB-75; experiment: NCI human tumor cell panel: SNB-75 (CNS Cancer); format: cell-based
[17] = tested on: U251; experiment: NCI human tumor cell panel: U251 (CNS Cancer); format: cell-based
[18] = tested on: LOX IMVI; experiment: NCI human tumor cell panel: LOX IMVI (Melanoma); format: cell-based
[19] = tested on: MALME-3M; experiment: NCI human tumor cell panel: MALME-3M (Melanoma); format: cell-based; conditions: Malme-3M
[20] = tested on: M14; experiment: NCI human tumor cell panel: M14 (Melanoma); format: cell-based
[21] = tested on: UACC-257; experiment: NCI human tumor cell panel: UACC-257 (Melanoma); format: cell-based
[22] = tested on: UACC-62; experiment: NCI human tumor cell panel: UACC-62 (Melanoma); format: cell-based
[23] = tested on: OVCAR-3; experiment: NCI human tumor cell panel: OVCAR-3 (Ovarian Cancer); format: cell-based
[24] = tested on: OVCAR-4; experiment: NCI human tumor cell panel: OVCAR-4 (Ovarian Cancer); format: cell-based
[25] = tested on: OVCAR-8; experiment: NCI human tumor cell panel: OVCAR-8 (Ovarian Cancer); format: cell-based
[26] = tested on: ACHN; experiment: NCI human tumor cell panel: ACHN (Renal Cancer); format: cell-based
[27] = tested on: UO-31; experiment: NCI human tumor cell panel: UO-31 (Renal Cancer); format: cell-based
[28] = tested on: DU-145; experiment: NCI human tumor cell panel: DU-145 (Prostate Cancer); format: cell-based
[29] = tested on: MCF7; experiment: NCI human tumor cell panel: MCF7 (Breast Cancer); format: cell-based
[30] = tested on: MDA-MB-435; experiment: NCI human tumor cell panel: MDA-MB-435 (Breast Cancer); format: cell-based
[31] = tested on: MDA-N; experiment: NCI human tumor cell panel: MDA-N (Breast Cancer); format: cell-based
[32] = tested on: HOP-92; experiment: NCI human tumor cell panel: HOP-92 (Non-Small Cell Lung Cancer)
[33] = read-out: Log10 GI50 (converted)
[34] = read-out: Log10 TGI (converted)

Q: For `OCc1ccc(-c2ccc(-c3ccc(CO)[se]3)[se]2)[se]1` [compound 675247], which GI50 ([1]; MOLT-4, read-out: Log10 GI50 (converted)) is on record?
A: 3.31 µM

Q: What about the IC (TGI) ([1]; MOLT-4, read-out: Log10 TGI (converted)) of the same molecule?
A: 8.32 µM

Q: And the GI50 ([2]; RPMI-8226, read-out: Log10 GI50 (converted))?
A: 4.07 µM

Q: And the IC (TGI) ([2]; RPMI-8226, read-out: Log10 TGI)?
A: > 100 µM

Q: And the GI50 [3, 33]?
A: 3.72 µM

Q: What about the IC (TGI) [3, 34] of the same molecule?
A: > 100 µM

Q: And the GI50 [4, 33]?
A: 5.01 µM

Q: And the IC (TGI) [4, 34]?
A: 34.7 µM

Q: And the GI50 ([5]; HOP-62, read-out: Log10 GI50 (converted))?
A: 5.5 µM

Q: What about the IC (TGI) ([5]; HOP-62, read-out: Log10 TGI (converted)) of the same molecule?
A: 21.4 µM

Q: What about the GI50 [6, 33] of the same molecule?
A: 11.2 µM

Q: What about the IC (TGI) [6, 34] of the same molecule?
A: 24.5 µM

Q: And the GI50 ([7]; NCI-H460, read-out: Log10 GI50 (converted))?
A: 0.525 µM

Q: What about the IC (TGI) ([7]; NCI-H460, read-out: Log10 TGI (converted)) of the same molecule?
A: 10 µM

Q: And the GI50 ([8]; HCC-2998, read-out: Log10 GI50 (converted))?
A: 0.851 µM

Q: And the IC (TGI) ([8]; HCC-2998, read-out: Log10 TGI (converted))?
A: 3.24 µM

Q: What about the GI50 ([9]; HCT-116, read-out: Log10 GI50 (converted)) of the same molecule?
A: 0.537 µM

Q: And the IC (TGI) ([9]; HCT-116, read-out: Log10 TGI (converted))?
A: 11.2 µM

Q: What about the GI50 ([10]; HCT-15, read-out: Log10 GI50 (converted)) of the same molecule?
A: 3.8 µM

Q: And the IC (TGI) ([10]; HCT-15, read-out: Log10 TGI (converted))?
A: 12.3 µM

Q: What about the GI50 ([11]; HT-29, HT29, read-out: Log10 GI50 (converted)) of the same molecule?
A: 1.62 µM

Q: What about the IC (TGI) ([11]; HT-29, HT29, read-out: Log10 TGI (converted)) of the same molecule?
A: 7.59 µM

Q: And the GI50 ([12]; KM12, read-out: Log10 GI50 (converted))?
A: 4.47 µM

Q: And the IC (TGI) ([12]; KM12, read-out: Log10 TGI (converted))?
A: 15.1 µM

Q: And the GI50 ([13]; SW-620, read-out: Log10 GI50 (converted))?
A: 1.35 µM

Q: What about the IC (TGI) ([13]; SW-620, read-out: Log10 TGI (converted)) of the same molecule?
A: 3.63 µM

Q: What about the GI50 ([14]; SF-295, read-out: Log10 GI50 (converted)) of the same molecule?
A: 11.7 µM

Q: And the IC (TGI) ([14]; SF-295, read-out: Log10 TGI (converted))?
A: 28.8 µM

Q: And the GI50 ([15]; SF-539, read-out: Log10 GI50 (converted))?
A: 17.4 µM

Q: What about the IC (TGI) ([15]; SF-539, read-out: Log10 TGI (converted)) of the same molecule?
A: 40.7 µM

Q: And the GI50 ([16]; SNB-75, read-out: Log10 GI50 (converted))?
A: 14.8 µM

Q: And the IC (TGI) ([16]; SNB-75, read-out: Log10 TGI (converted))?
A: 38.9 µM

Q: What about the GI50 ([17]; U-251, U251, read-out: Log10 GI50 (converted)) of the same molecule?
A: 0.468 µM

Q: And the IC (TGI) ([17]; U-251, U251, read-out: Log10 TGI (converted))?
A: 12.3 µM

Q: What about the GI50 [18, 33] of the same molecule?
A: 3.02 µM

Q: And the IC (TGI) [18, 34]?
A: 7.08 µM

Q: And the GI50 [19, 33]?
A: 2.88 µM

Q: And the IC (TGI) [19, 34]?
A: 10.7 µM

Q: And the GI50 ([20]; M14, read-out: Log10 GI50 (converted))?
A: 3.72 µM

Q: And the IC (TGI) ([20]; M14, read-out: Log10 TGI (converted))?
A: 12.9 µM

Q: And the GI50 ([21]; UACC-257, read-out: Log10 GI50 (converted))?
A: 0.437 µM

Q: What about the IC (TGI) ([21]; UACC-257, read-out: Log10 TGI (converted)) of the same molecule?
A: 2 µM

Q: What about the GI50 ([22]; UACC-62, read-out: Log10 GI50 (converted)) of the same molecule?
A: 0.155 µM

Q: And the IC (TGI) ([22]; UACC-62, read-out: Log10 TGI (converted))?
A: 2.45 µM

Q: What about the GI50 ([23]; OVCAR-3, read-out: Log10 GI50 (converted)) of the same molecule?
A: 0.209 µM

Q: What about the IC (TGI) ([23]; OVCAR-3, read-out: Log10 TGI (converted)) of the same molecule?
A: 1.17 µM

Q: And the GI50 ([24]; OVCAR-4, read-out: Log10 GI50 (converted))?
A: 1.7 µM

Q: What about the IC (TGI) ([24]; OVCAR-4, read-out: Log10 TGI (converted)) of the same molecule?
A: 6.92 µM

Q: And the GI50 ([25]; OVCAR-8, read-out: Log10 GI50 (converted))?
A: 3.72 µM

Q: What about the IC (TGI) ([25]; OVCAR-8, read-out: Log10 TGI (converted)) of the same molecule?
A: 17.8 µM

Q: And the GI50 [26, 33]?
A: 3.98 µM

Q: What about the IC (TGI) [26, 34] of the same molecule?
A: > 100 µM

Q: What about the GI50 ([27]; UO-31, read-out: Log10 GI50 (converted)) of the same molecule?
A: 5.25 µM

Q: What about the IC (TGI) ([27]; UO-31, read-out: Log10 TGI (converted)) of the same molecule?
A: 14.8 µM

Q: What about the GI50 ([28]; DU-145, read-out: Log10 GI50 (converted)) of the same molecule?
A: 6.92 µM

Q: What about the IC (TGI) ([28]; DU-145, read-out: Log10 TGI (converted)) of the same molecule?
A: 19.5 µM

Q: And the GI50 ([29]; MCF7, read-out: Log10 GI50 (converted))?
A: 0.158 µM

Q: What about the IC (TGI) ([29]; MCF7, read-out: Log10 TGI (converted)) of the same molecule?
A: 11.2 µM

Q: And the GI50 ([30]; MDA-MB-435, read-out: Log10 GI50 (converted))?
A: 2.95 µM

Q: And the IC (TGI) ([30]; MDA-MB-435, read-out: Log10 TGI (converted))?
A: 9.77 µM

Q: What about the GI50 [31, 33] of the same molecule?
A: 7.76 µM

Q: What about the IC (TGI) [31, 34] of the same molecule?
A: 25.1 µM

Q: And the GI50 ([32]; HOP-92, read-out: Log10 GI50 (converted))?
A: 2.4 µM

Q: What about the IC (TGI) ([32]; HOP-92, read-out: Log10 TGI) of the same molecule?
A: 7.59 µM
